Experiments:
Type in all cases: cell-based
Ba/F3-parental cells = experiment: Anti-proliferation assay (CellTiter Glo) on Ba/F3-parental; settings: Mus musculus, BaF3; 72 h treatment; with 10 ng/ml IL-3; average with SD (n = 3, duplicate)
Description: (§1) Ba/F3-parental, OCI-AML3, U397 cells were purchased from DSMZ. MDA-MB-231, HCT-116, AsPC-1, H358, HT-29, SW480, and DU-145 cells were obtained from KCLB. MDA-MB-468 cells were obtained from ATCC. All cells were maintained in RPMI with 10% FBS and antibiotics. Cells were grown in a humidified 5% CO2 incubator at 37°C. Ba/F3-parental cells were grown in the presence of 10 ng/ml IL-3. NRAS-G12D or NRAS-G12V transformed Ba/F3 cell lines (Ba/F3-NRAS-G12D, and Ba/F3-NRAS-G12V, respectively) were cultured without IL-3, which were established by the procedure described as previously ([30]).
(§2) Approximately 3.0 × 10^3 cells/well were seeded in a 96-well cell culture plate. After stabilization, 1/3 serially diluted compound in DMSO was treated to the cell. […] All GI50 values were obtained in duplicate with three independent assays and averages with standard deviation are presented.

H358 (KRAS-G12C) = experiment: Anti-proliferation assay on H358; settings: Homo sapiens, NCI-H358; 72 h treatment; average with SD (n = 3, duplicate)
Description: as §1, §2

[1] = tested on: cancer cells harboring mtRAS; experiment: Flow cytometry apoptosis analysis (annexin V/PI), cancer cells harboring mtRAS; settings: 1 μM, 24 h
Description: For apoptosis analysis, cells (1 × 10^6 cells per sample) were incubated with each compounds for 24 h. Cells were subjected to brief ice-cold PBS washing and subjected to staining with Alexafluor488-conjugated annexin V (Thermo Fisher, A13201), and propidium iodide (PI, Thermo Fisher, P3560). Thereafter, apoptotic cells were classified by FACS Accuri™ C6 Plus (BD Biosciences). Debris and unstained cells and were excluded by gating.
Figure 4 The effects of (A) SIJ1795 and (B) SIJ1772 on apoptosis induction in cancer cells harboring mtRAS. Cells were treated with 0.1 and 1 μM of SIJ1795 SIJ1772, and GNF-7 for 24 h. Western blot analysis was conducted to evaluate the cleaved PARP and level. GAPDH was used as a loading control. (C) Apoptotic cell population (annexin V-positive) was determined by flow cytometry analysis (n = 3). Cells were treated with 1 μM of indicated compounds for 24 h. Statistical significance was determined using a one-way ANOVA analysis (*p < 0.05, **p < 0.01, ***p < 0.001).

[2] = tested on: cleaved PARP in Ba/F3-NRAS-G12D and Ba/F3-NRAS-G12V cells; experiment: Western blot, cleaved PARP in Ba/F3 cells transformed with mtRAS; settings: 1 μM, 24 h
Description: (§3) Approximately 1 × 10^6 cells per well were seeded in a 6-well cell culture plate. After cell adhesion, each compounds were treated for 2 h with indicated concentration and conducted brief washing twice by ice-cold PBS. Cells were lysed by NP40 buffer (50 mM Tris–HCl pH 7.4, 1% NP40, 2 mM EDTA, 150 mM NaCl) in the presence of protease inhibitor cocktail (Roche, #11873580001) and phosphatase inhibitor cocktail (Roche, #04906837001). Each sample was loaded with same amount of total protein and separated by SDS-PAGE gel. After transferred to nitrocellulose membrane, blocking with 5% skim milk (in TBS/T) was followed. […] Chemiluminescence signals were detected by ImageQuant™ LAS 4000 (GE Healthcare).
Figure 3 (A, B) The effects of SIJ1795 and SIJ1772 on apoptosis induction in Ba/F3 cells transformed with mtRAS (NRAS-G12D and NRAS-G12V). […] (C) Apoptotic cell population (annexin V-positive) was determined by flow cytometry analysis (n = 3). […] Statistical significance was calculated by a one-way ANOVA analysis (**p < 0.01, ***p < 0.001).

U937 (KRAS, NRAS-wt) = experiment: Anti-proliferation assay on U937; settings: Homo sapiens, U-937; 72 h treatment; average with SD (n = 3, duplicate)
Description: as §1, §2

[3] = tested on: phospho-70S6K1, -JNK, -p38 in Ba/F3-NRAS-G12D and OCI-AML cells; experiment: Western blot, ACK1 and GCK downstream signaling (phospho-70S6K1, -JNK, -p38); settings: 0.1, 1, 10 μM for 2 h
Description: as §3, with “followed. The membrane was incubated 4°C for overnight with uniformly diluted primary antibodies at 1:1,000 (v/v) in TBS/T. The following primary antibodies were used: anti-p-AKT (Cell Signaling, #9271), anti-p-ERK1/2 (Cell Signaling, #4370), anti-PARP (Cell Signaling, #9542), anti-GAPDH (Cell Signaling, #5174), anti-p-70S6K1 (Cell Signaling, #9204), anti-p-JNK(Cell Signaling, #9251), anti-p-p38 (Cell Signaling, #9216), and anti-p-MEK1/2 (Santa Cruz, sc-81503).” for “followed.”, “Healthcare). […]” for “Healthcare).”

AsPC-1 (KRAS-G12D) = experiment: Anti-proliferation assay on AsPC-1; settings: Homo sapiens, ASPC1; 72 h treatment; average with SD (n = 3, duplicate)
Description: as §1, §2

Row | Structure (SMILES) | GI50 (Ba/F3-parental cells) | GI50 (H358 (KRAS-G12C)) | apoptosis against cancer cells harboring mtRAS (annexin V/PI) [1] | cleaved PARP level in Ba/F3-NRAS-G12D and Ba/F3-NRAS-G12V cells [2] | GI50 (U937 (KRAS, NRAS-wt)) | phosphorylation of 70S6K1 (downstream molecule of ACK), JNK, p38 (downstream molecule of GCK) [3] | GI50 (AsPC-1 (KRAS-G12D))
1 | Cc1ccc(NC(=O)c2cccc(C(F)(F)F)c2)cc1N1Cc2cnc(Nc3cnn(C4CCN(S(C)(=O)=O)CC4)c3)nc2N(C)C1=O [SIJ1772, N-(4-Methyl-3-(1-methyl-7-((1-(1-(methylsulfonyl)piperidin-4-yl)-1H-pyrazol-4-yl)amino)-2-oxo-1,4-dihydropyrimido[4,5-d]pyrimidin-3(2H)-yl)phenyl)-3-(trifluoromethyl)benzamide] | 1920 ± 86 nM | 125 ± 17 nM | induced apoptosis | increased cleaved PARP level | 9590 ± 832 nM | effectively inhibited | 170 ± 32 nM
2 | CCN1CCN(c2cccc(Nc3ncc4c(n3)N(C)C(=O)N(c3cc(NC(=O)c5cccc(C(F)(F)F)c5)ccc3C)C4)c2)CC1 [SIJ1795, N-(3-(7-((3-(4-Ethylpiperazin-1-yl)phenyl)amino)-1-methyl-2-oxo-1,4-dihydropyrimido[4,5-d]pyrimidin-3(2H)-yl)-4-methylphenyl)-3-(trifluoromethyl)benzamide] | 2020 ± 419 nM | 203 ± 12 nM | induced apoptosis | increased cleaved PARP level | 1000 ± 126 nM | effectively inhibited | 144 ± 23 nM
